# In patent publication US10022328B2, “Dialkyl sulfosuccinate compositions, method of making, and method of use” (CYTEC INDUSTRIES INC., priority 2015, dated 2018):
# Assay: Contact angle of excipient solution in 0.1 M HCl with API pellet (sessile drop)
# Assay type: physicochemical
# Settings: 0.1% excipient in 0.1 M HCl, 10-μL drops on pressed API pellet
# Source text: A factor which contributes to the bioavailability of active pharmaceutical ingredients (API's) is the wetting of the API by an aqueous solution at a physiological pH. Wetting can affect dissolution rates of the API in the aqueous solution. Wetting can be assessed by measuring the contact angle between an aqueous solution and an API. In these examples, the sessile drop method was used to determine contact angles. Pellets of API were produced using an X-press 3630 with a 35-mm pressing die. The API was pressed into a 35-mm diameter aluminum pan using the standard 30-ton cycle in order to produce a flat surface. Drops (10-μL) of a 0.1% test solution of an excipient were used. The test solution was 0.1 M HCl, to simulate physiological conditions in the human stomach.
molecule,measurement,value
"CCCCCCCCCCCCOS(=O)(=O)[O-].[Na+] [SLS, Sodium lauryl sulfate]",Contact Angle with Fenofibrate,47 °
same,Contact Angle with Glipizide,43 °
same,Contact Angle with Ibuprofen,54 °
same,Contact Angle with Naproxen,34 °
same,Contact Angle with Ritonavir,57 °
Polyoxyethylene (20) sorbitan monolaurate [TWEEN ™ 20],Contact Angle with Fenofibrate,58 °
same,Contact Angle with Glipizide,42 °
same,Contact Angle with Ibuprofen,45 °
same,Contact Angle with Naproxen,48 °
same,Contact Angle with Ritonavir,40 °
Polyoxyethylene (20) sorbitan monooleate [TWEEN ™ 80],Contact Angle with Fenofibrate,70 °
same,Contact Angle with Glipizide,55 °
same,Contact Angle with Ibuprofen,68 °
same,Contact Angle with Naproxen,52 °
same,Contact Angle with Ritonavir,51 °
